# In US20210346359A1, “Use of CFTR Modulators For Treating Cerebrovascular Conditions” (Qanatpharma AG, priority 2018, published 2021):
# Entries after “also recorded” stand apart in the source; their conditions may differ.
# What was measured:
# [1] = system: posterior cerebral arteries; assay: Myogenic tone of isolated posterior cerebral arteries after in vivo treatment; set-up: species or system mouse
# Source text: Myocardial infarction: HF was induced by surgical ligation of the left anterior descending coronary artery (3). Briefly, mice were anaesthetized with isoflurane, intubated with a 20-gauge angiocatheter and ventilated with room air. Under sterile conditions, the thorax and pericardium were opened, and the left anterior descending coronary artery was permanently ligated with 7-0 silk suture (Deknatel: Fall River, USA). In sham-operated controls, the thorax and pericardium were opened, but the left anterior descending coronary artery was not ligated. Following the procedure, the chest was closed and the mice were extubated upon spontaneous respiration. Posterior cerebral arteries (PCAs) were isolated 4-6 weeks post-infarction. […]
# Myogenic responses were elicited by step-wise 20 mmHg increases in transmural pressure from 20 mmHg to 80 mmHg (olfactory arteries) or 100 mmHg (posterior cerebral arteries and cremaster skeletal muscle resistance arteries). At each pressure step, vessel diameter (diaactive) was measured once a steady state was reached (5 min). Vessels requiring treatment (e.g., CFTR(inh)-172) were incubated with the reagent in MOPS for 30 min and myogenic responses were then assessed in the presence of that reagent. Following completion of all diaactive measurements, MOPS buffer was replaced with a Ca^2+-free version and maximal passive diameter (diamax) was recorded at each pressure step.
# Myogenic tone was calculated as the percent constriction in relation to the maximal diameter at each respective transmural pressure: tone (% of diamax)=[(diamax−diaactive)/diamax]×100, where diaactive is the vessel diameter in MOPS containing Ca^2+ and diamax is the diameter in Ca^2+-free MOPS. Analyses of vasomotor responses to phenylephrine used the same calculation, only in this case, diaactive represents the vessel diameter at steady state following application of the given agent and diamax represents the maximal diameter measured under Ca^2+-free conditions.
# mice with heart failure = assay: MRI T2 mapping of cerebral edema in heart failure mice; assay type: in vivo, mouse; conditions: HF mice, 3 mg/kg daily for 2 days
# Protocol: Magnetic resonance imaging-based edema measurement: Edema was assessed by quantitative T2 mapping (12), using a 7 Tesla micro-MRI system (Bruker Corporation Biospec 70/30 USR; Ettlingen, Germany). The T2 mapping acquisition generated quantitative T2 maps in 9 contiguous 2D axial slices, with 1 mm thickness, covering the volume from the fore-brain through to the hind-brain. T2 maps were generated from T2-weighted images at echo times from 12 to 384 ms, using in-line Bruker software, via linear regression of the logarithmically-transformed signal magnitudes and the echo times on a per voxel basis. The T2 values were extracted using MIPAV software, using manually drawn regions-of-interest placed within the fore-, middle- and hind-brain T2 maps.
# CFTR = CFTR (Mus musculus, UniProt P26361); assay: CFTR protein in cerebral arteries of mice with heart failure; assay type: in vivo; set-up: Cerebral artery lysates were prepared by grinding artery samples in lysis buffer; from tissue; host or cells: cerebral arteries of male wild-type C57BL/6N mice (naïve, heart failure or subarachnoid hemorrhage models); conditions: 6 weeks post-ligation, 3 mg/kg daily for 2 days
# Protocol: Western blots for CFTR were completed as previously described (12, 18). Cerebral artery lysates were prepared by grinding artery samples in lysis buffer containing 50 mM Tris (pH 7.3), 150 mM NaCl, 2 mM […], 0.1% Triton-X-100, 0.1% […] and protease inhibitors; the same lysis buffer was used to prepare cell culture lysates. Following lysis, the samples were centrifuged (10 minutes at 13,500 g; at 4° C.) to remove insoluble material. Immediately prior to polyacrylamide electrophoresis, additional SDS (to 2% final concentration), glycerol (to 2% final concentration), β-mercaptoethanol (to 2% final concentration) and dithiothreitol (2 mM final concentration) were added. Proteins were separated electrophoretically on 7% acrylamide gels and transferred onto polyvinylidene difluoride (PVDF) membranes. […]
# The primary antibodies were conjugated with either peroxidase-labeled donkey anti-rabbit IgG (GE Healthcare Amersham (Piscataway, USA) cat# NA934) or peroxidase-labeled goat anti-mouse IgG (GE Healthcare Amersham cat# NA931) secondary antibodies. […] Developed films were evaluated densitometrically using “Image J” software (freely available from the NIH); digital images were evaluated with Image Lab software (Bio-Rad). […]
# Sequence of CFTR (P26361 whole entry): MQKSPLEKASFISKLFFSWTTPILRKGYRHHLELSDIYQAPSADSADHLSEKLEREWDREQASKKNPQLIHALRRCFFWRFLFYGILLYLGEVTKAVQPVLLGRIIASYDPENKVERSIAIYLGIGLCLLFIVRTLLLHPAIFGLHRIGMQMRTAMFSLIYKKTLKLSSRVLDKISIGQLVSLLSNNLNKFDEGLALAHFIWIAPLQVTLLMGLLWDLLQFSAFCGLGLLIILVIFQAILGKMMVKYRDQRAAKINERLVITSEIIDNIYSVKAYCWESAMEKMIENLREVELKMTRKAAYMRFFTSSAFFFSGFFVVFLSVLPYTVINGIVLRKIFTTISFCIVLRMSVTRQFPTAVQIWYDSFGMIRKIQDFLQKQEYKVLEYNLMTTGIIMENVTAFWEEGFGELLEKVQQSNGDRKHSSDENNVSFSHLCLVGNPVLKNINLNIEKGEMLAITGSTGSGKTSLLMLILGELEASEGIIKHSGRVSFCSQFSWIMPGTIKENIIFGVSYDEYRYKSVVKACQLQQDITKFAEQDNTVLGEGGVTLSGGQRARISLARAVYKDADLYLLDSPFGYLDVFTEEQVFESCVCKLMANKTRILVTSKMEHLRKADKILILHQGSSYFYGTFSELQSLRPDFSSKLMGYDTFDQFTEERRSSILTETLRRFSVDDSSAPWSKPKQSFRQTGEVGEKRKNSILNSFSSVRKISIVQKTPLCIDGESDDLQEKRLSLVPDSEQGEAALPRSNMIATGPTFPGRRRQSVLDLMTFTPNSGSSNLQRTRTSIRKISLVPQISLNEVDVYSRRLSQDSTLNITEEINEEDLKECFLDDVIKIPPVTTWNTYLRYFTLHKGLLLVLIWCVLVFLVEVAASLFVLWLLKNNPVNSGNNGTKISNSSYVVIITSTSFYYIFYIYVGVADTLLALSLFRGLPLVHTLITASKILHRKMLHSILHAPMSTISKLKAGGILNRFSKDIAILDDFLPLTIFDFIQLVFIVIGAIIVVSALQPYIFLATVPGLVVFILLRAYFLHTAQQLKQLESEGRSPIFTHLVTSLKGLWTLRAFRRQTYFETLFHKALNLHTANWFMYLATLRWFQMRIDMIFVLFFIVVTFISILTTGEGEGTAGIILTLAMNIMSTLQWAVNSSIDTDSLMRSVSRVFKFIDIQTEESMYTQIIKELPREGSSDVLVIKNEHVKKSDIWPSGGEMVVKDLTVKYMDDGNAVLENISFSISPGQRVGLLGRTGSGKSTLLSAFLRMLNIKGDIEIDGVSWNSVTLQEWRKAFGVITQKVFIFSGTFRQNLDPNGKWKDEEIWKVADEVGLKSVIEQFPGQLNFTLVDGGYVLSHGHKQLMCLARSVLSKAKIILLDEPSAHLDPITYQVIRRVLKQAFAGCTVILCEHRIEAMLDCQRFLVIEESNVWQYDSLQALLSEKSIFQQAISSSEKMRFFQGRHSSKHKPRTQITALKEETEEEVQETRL
smiles,measurement,setting,value
"O=C(Nc1ncc(C(c2ccccc2Cl)N2CCC(O)C2)s1)C1(c2ccc3c(c2)OCO3)CC1 (centres unmarked) [C18, 1-(benzo[d][1,3]dioxol-5-yl)-N-(5-((2-chlorophenyl)(3-hydroxypyrrolidin-1-yl)methyl)thiazol-2-yl)cyclopropanecarboxamide]",posterior cerebral artery myogenic tone,"[1]; arteries from CFTR knockout mice, in vivo 3 mg/kg daily for 2 days",not susceptible; also recorded: not observed
same,posterior cerebral artery myogenic tone,"[1]; arteries from HF mice, in vivo 3 mg/kg daily for 2 days",normalizes; also recorded: reduces
same,posterior cerebral artery myogenic tone,"[1]; arteries from sham-operated mice, in vivo 3 mg/kg i.p. daily for 2 days",does not affect; also recorded: does not alter
same,cerebral edema (T2 relaxation times),mice with heart failure,neither HF nor C18 treatment in the context of HF induces evident edema; also recorded: does not induce edema; also recorded: Neither HF nor C18 treatment in HF mice induces an alteration
same,cerebral artery CFTR protein expression in HF,CFTR,restores; also recorded: eliminates this reduction
